Results on two compounds are retold here after patent US20060058379A1, “Connexin 26 inhibitor and cancer metastasis inhibitors” (priority 2002, published 2006).

Series [1] has as its target T1, connexin 26 (Rattus norvegicus, UniProt P21994).
T1 construct: expressed in transfected cells; host or cells: HeLa (human cervical carcinoma) subclone HeLa-Cx26
Nature of the series: Dye-transfer assay (GJIC) in HeLa-Cx26 cells. It is filed as cell-based. Particulars: HeLa-Cx26, calcein/DiI dye transfer, FIG. 1. An excerpt:
The connexin 26 inhibitory activity can be evaluated with dye-transfer assay, for example. Specifically, a gap junction level (GJIC score) against the connexin 26 is used for evaluation (c.f. Japanese Laid-Open Patent Publication No. 17184/2001, “Tokukai 2001-17184, publication date: Jan. 23, 2001, and M. Mensil et al. Cancer Res. Vol 55, 629-639 1995.).
With this method, labelling dye, which can be transferred to outside of cells only through the gap junctions, is introduced into cells. Then the cells are smeared on a monolayer culture or a tissue culture. […]
GJIC score can be calculated as described in following examples. That is, if no dye-coupling occurs with respect to the donor cells, “0” is scored; “1” is scored if dye-coupling from the donor cell to an adjacent receptive cell occurs; and “2” is scored if dye-coupling from the donor cell to a second adjacent cell occurs. In this manner, when dye-coupling to n^th adjacent cell from the donor cell occurs, “n” (an integer) is scored. […]
(§1) Cells containing the gap junction-impermeable DiI (red fluorescence) were identified as donor cells. […]
The level of gap junction cell-to-cell communication (GJIC) was scored by the following methods. […]

Series [2] addresses T2, connexin 43 (Rattus norvegicus, UniProt P08050).
T2 construct: contained a cDNA fragment of an entire coding region of rat Cx43; expressed in transfected cells; host or cells: HeLa cells stably transfected with pCX4bsr-Cx43 (clone HeLa-Cx43)
As to the kind of experiment: Dye-transfer assay (GJIC) in HeLa-Cx43 cells. In kind it is cell-based. The conditions noted are these: HeLa-Cx43, calcein/DiI dye transfer, FIG. 1.
Description: A pCX4bsr vector was derived from the pCXbsr vector (T Akagi., et al., 2000, Proc. Natl. Acad. Sci. USA) with minor modification. The pCX4bsr vector was kindly given by Dr. T Akagi (Osaka Bioscience Institute, Osaka, Japan). The pBluescriptII SK+plasmid vector contained a cDNA fragment of an entire coding region of rat Cx43 between the Spel and ClaI sites, and was constructed previously (Y. Omori., et al., 1998, Int. J. Cancer). The Cx43cDNA was excised by digesting NotI and HincII, and being ligated with the pCX4bsr where NotI and HincII were digested. HeLa cells were transfected with the resulting pCX4bsr-Cx43 vector by using the TransFast transfection regent. […]
as §1
The level of gap junction cell-to-cell communication (GJIC) was scored by the following methods.
Donor cells were scored as 0 for no dye-coupling, as 1 for dye-coupling from a donor cell to an adjacent recipient cell, and as 2 or 3 when calcein transferred to the adjacent recipient cell further transfers to a second or a third adjacent cell, subsequently, in a direction away from the donor cell. […] The experiments were repeated three times and mean and standard deviation of score counts were calculated for each factor. […]

Series [3] concerns BL6 cells (substrains of B16 mouse melanoma cells). Nature of the series: Cancer metastasis inhibitory action test 2: spontaneous lung metastasis after subcutaneous BL6 inoculation. Particulars: C57B1/6 mice, counted four weeks after dismembering. It is filed as in vivo. Here is the method: After subcutaneously inoculating 1×10^5 BL6 cells (substrains of B16 mouse melanoma cells) to a planter of each C57B1/6 mouse, the mice were classified into three groups. • 1) Control mice (Nt) with no treatment but transplanting […]; • 2) Oleamide (25 mg/kg/day) administration group: peritoneal injection of olive oil 0.2 ml dissolved with oleamide at concentration of 25 mg/kg/day once a day on consecutive days; and • 3) MI-18 (10 mg/kg/day) administration group: olive oil 0.2 ml dissolved with MI-18 at concentration of 10 mg/kg/day once a day on consecutive days.
The mice were treated in the above manners every day after the BL6 cells inoculation. Then, on about 18th day, tumors (about eight mm radical) formed at the injected points were removed by dismembering at knee joints. Then the mice were treated in the above manners for another two days after the dismembering. After that, mice were fed without the treatments. At four weeks after dismembering at the knee joints, the mice were euthanized, and metastasized tubercles in both left and right lungs (the number of focuses) were counted visually (refer to FIG. 2 (a) through (c) and FIG. 3). Cancer metastasis inhibitory action was evaluated using 15 mice for each group. […] Therefore, these materials are highly safe. […]

Series [4] is described as follows: Death of mice due to causes other than cancer under daily administration (Example 5). In kind it is in vivo, mouse. The conditions noted are these: C57B1/6 mice, approximately two months, FIG. 5.
The subject of series [5] is BL6 cells (substrains of B16 mouse melanoma cells). Nature of the series: Cancer metastasis inhibitory action test 1: spontaneous lung metastasis after subcutaneous BL6 inoculation. In kind it is in vivo. The conditions noted are these: C57B1/6 mice; for metastasized tubercles in lungs (number of foci) vs vehicle group: counted four weeks after dismembering. Here is the method:
The mice were treated in the above manners on consecutive days after the BL6 cells inoculation. Then, on about 18th day, tumors (about six mm in diameter) formed at inoculation points were removed by dismembering at knee joints. Then the mice were treated in the above manners for another two days after the dismembering. After that, the mice were fed without the treatments. At four weeks after the dismembering at the knee joints, the mice were euthanized, and metastasized tubercles in both left and right lungs (the number of focuses) were counted visually (refer to FIG. 2 (a) through (c) and FIG. 3). Cancer metastasis inhibitory action was evaluated using 10 mice for each group.

Entries after “also recorded” stand apart in the source; their conditions may differ.

T2 sequence (P08050 2-382): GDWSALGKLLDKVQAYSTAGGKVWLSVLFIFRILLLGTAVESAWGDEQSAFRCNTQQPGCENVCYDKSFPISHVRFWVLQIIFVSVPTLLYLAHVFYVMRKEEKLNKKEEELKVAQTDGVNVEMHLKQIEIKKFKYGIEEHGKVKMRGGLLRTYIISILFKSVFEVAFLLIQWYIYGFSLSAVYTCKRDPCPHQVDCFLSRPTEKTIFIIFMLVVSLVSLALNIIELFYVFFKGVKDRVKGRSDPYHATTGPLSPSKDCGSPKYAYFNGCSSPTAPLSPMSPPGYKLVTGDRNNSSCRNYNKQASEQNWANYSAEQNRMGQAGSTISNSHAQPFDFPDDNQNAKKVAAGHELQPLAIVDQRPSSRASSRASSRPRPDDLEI

In the case of `CCCCCCCC[C@H]1O[C@H]1CCCCCCCC(N)=O` (relative stereo) [MI-18, 8-[(2S*3R*)-3-octyloxirane-2-yl]octanamide], in series [1], the “inhibitory activity against connexin 26 (gap junction dye-coupling)” value is on record as “exhibits inhibitory activity”. The “inhibitory activity against connexin 43 (gap junction dye-coupling)” value in series [2] is “specifically inhibits only connexin 26”. Further, the “metastasized tubercles in lungs (number of foci) vs untreated group” value in series [3] (10 mg/kg/day once a day) was “fewer metastasized tubercles and significantly exhibited cancer metastasis inhibitory activity”. Further, in series [4] (10 mg/kg/day every day), the “death of mice due to causes other than cancer” value is given as “no mice died due to other causes but cancer”.

Turning to `CCCCCCCC/C=C\CCCCCCCC(N)=O` [oleamide, 9(Z)-Octadecenamide], in series [1], the “inhibitory activity against connexin 26 (gap junction dye-coupling)” value was “exhibited inhibitory action; also recorded: exhibits inhibitory activity”. In addition, in series [2], the “inhibitory activity against connexin 43 (gap junction dye-coupling)” value is listed as “exhibited inhibitory action”. In series [3] (25 mg/kg/day peritoneal injection once a day), the “metastasized tubercles in lungs (number of foci) vs untreated group” value was “fewer metastasized tubercles and significantly exhibited cancer metastasis inhibitory activity”. The “metastasized tubercles in lungs (number of foci) vs vehicle group” value in series [5] (25 mg/kg/day peritoneal injection twice a day) is “fewer metastasized tubercles and significantly exhibited cancer metastasis inhibitory action”; in series [5] (50 mg/kg/day twice a day), “fewer metastasized tubercles and significantly exhibited cancer metastasis inhibitory action”. The “metastasized tubercles in lungs (number of foci)” value in series [5] (500 mg/kg/day, FIG. 2 (d)) is listed as “the similar result was obtained”. Besides, the “death of mice due to causes other than cancer” value in series [4] (25 mg/kg/day every day, 25 mg/kg/day) is on record as “death rates due to causes other than cancer were low; also recorded: no mice died due to other causes but cancer”.
